Structures can show the parent of a compound that is named as a salt.
What was measured:
human eosinophil = experiment: Binding inhibitory activity between chemokine ([125I]-eotaxin) and human eosinophil; conditions: 50 pmol/L [125I]-eotaxin, human eosinophil 2x10^5, 25 C, 1 hr; read-out: IC50 (concentration necessary for decreasing the binding between [125I]-eotaxin and human eosinophil by 50%)
Procedure: Human eosinophil was separated from the anticoagulation treated peripheral blood of a healthy subject by CD16 negative selection method (e.g., J. Immunol. Methods, vol., 145, pp. 105–110, 1991). The separated eosinophil (2×10^5), 50 pmol/L [^125I]-eotaxin (2000 Ci/mmoL, manufactured by AmershamPharmacia Biotech) and a test compound were mixed in 0.1 mL of a binding buffer (50 mmol/L HEPES, 1 mmol/L CaCl2, 5 mmol/L MgCl2, 0.5% bovine serum albumin (BSA), 0.1% sodium azide, pH 7.6), and the mixture was incubated at 25° C. for 1 hr in a multiscreen plate (manufactured by Millipore Corporation). After the completion of the incubation, the reaction mixture in the multiscreen plate was filtered in vacuo and washed with 0.6 mL of a cold washing buffer (50 mmol/L HEPES, 1 mmol/L CaCl2, 5 mmol/L MgCl2, 0.5 mol/L NaCl, 0.1% sodium azide, pH 7.6), and the radioactivity on the filter was measured. […] The IC50 values (concentration of a test compound necessary for decreasing the binding between [^125 I]-eotaxin and human eosinophil by 50%) of some of the compounds of the present invention were as follows.

CCR3 = biological target: T1, CCR3 (Homo sapiens, UniProt P51677); experiment: Effect on intracellular calcium concentration in eosinophil on stimulation with CCL11; type: cell-based; conditions: human peripheral blood eosinophil, agonist CCL11 0.3 nmol/L, compound 5 min before stimulation, Fura-2 AM; read-out: IC50 of the increase in the intracellular calcium concentration
T1 construct: Eosinophil separated from the peripheral blood of a healthy subject; endogenous in cells; host or cells: eosinophils from peripheral blood of a healthy subject
T1 sequence (P51677 1-355): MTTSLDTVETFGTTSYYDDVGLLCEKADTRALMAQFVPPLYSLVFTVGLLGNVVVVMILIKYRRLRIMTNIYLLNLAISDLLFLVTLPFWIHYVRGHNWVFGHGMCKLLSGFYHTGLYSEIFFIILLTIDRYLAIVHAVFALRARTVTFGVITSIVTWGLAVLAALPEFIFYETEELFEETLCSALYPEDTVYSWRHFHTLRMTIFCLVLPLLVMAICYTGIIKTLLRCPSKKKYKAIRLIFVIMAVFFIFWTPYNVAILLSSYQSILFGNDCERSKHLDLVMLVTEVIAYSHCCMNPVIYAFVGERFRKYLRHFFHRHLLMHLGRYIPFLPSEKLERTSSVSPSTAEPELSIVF
Procedure: The effect of the compound of the present invention on intracellular calcium in eosinophil in the peripheral blood of a healthy subject on stimulation with CCL11 was elavuated by the following method.
Eosinophil separated from the peripheral blood of a healthy subject was suspended in a buffer for measurement (10 mmol/L HEPES, and 0.5% bovine serum albumin-containing hanks' balanced salt solution), and the suspension was incubated in the presence of 5 μmol/L of Fura-2 AM (manufactured by Dojindo Laboratories) at 37° C. for 45 min. After the completion of incubation, the cells were washed three times with the buffer for measurement to remove Fura-2 AM not-incorporated into the cells.
The cell suspension was adjusted to the final concentration of 1×10^6 cells/mL with the buffer for measurement and preserved in a dark place until measurement. The intracellular calcium was measured using FDSS6000 manufactured by Hamamatsu Photonics K.K. That is, a cell suspension (0.1 mL) loaded with Fura-2 AM was placed in a 96 well plate for measurement, and the plate was set on FDSS6000. The fluorescence intensities due to excitation lights at wavelengths 340 nm and 380 nm were measured. The ratio of the fluorescence intensities corresponding to the excitation lights at these two wavelengths was determined to calculate the intracellular calcium concentration. […]

[1] = Measurement of blood (plasma) concentration; type: in vivo; conditions: female rat, LC/MS, administered orally and intravenously (route and dose for Cmax not stated)
Procedure: The compound of the present invention was administered orally and intravenously to female rat, and the plasma concentration of the compound was measured. That is, the test compound was weighed, dissolved or suspended in a medium, diluted to the objective concentration, and orally and intravenously administered. After the administration, the blood was drawn with time from the cervical vein with a heparin treated syringe. The blood was centrifuged, the plasma was separated, and the plasma was preserved at −20° C. until analysis. The concentration of the compound in plasma was measured using LC/MS. The results are shown in the following [Table 3].

Structure (SMILES)	IC50 (human eosinophil) [nM]	IC50 (CCR3) [nM]	Cmax [1] [ng/mL]
N=C(N)Nc1nc(-c2ccc(CCCCC(=O)NC3CCN(Cc4ccc(Cl)c(Cl)c4)CC3)cc2)cs1 [Example 1, N-[1-(3,4-dichlorobenzyl)piperidin-4-yl]-5-[4-(2-guanidinothiazol-4-yl)phenyl]valeramide]	6		
Nc1ccc(-c2csc(SCC(=O)NC3CCN(Cc4ccc(Cl)c(Cl)c4)CC3)n2)cc1 [Example 6, [4-(4-aminophenyl)thiazol-2-ylthio]-N-[1-(3,4-dichlorobenzyl)piperidin-4-yl]acetamide]	11		
N=C(N)Nc1nc(-c2ccc(OCCCC(=O)NC3CCN(Cc4ccc(Cl)c(Cl)c4)CC3)cc2)cs1 [Example 9, N-[1-(3,4-dichlorobenzyl)piperidin-4-yl]-4-[4-(2-guanidinothiazol-4-yl)phenyloxy]butylamide ½ fumarate ¼ hydrate]	4	6	
Nc1cccc(-c2csc(SCC(=O)NC3CCN(Cc4ccc(Cl)c(Cl)c4)CC3)n2)c1 [Example 35, [4-(3-aminophenyl)thiazol-2-ylthio]-N-[1-(3,4-dichlorobenzyl)piperidin-4-yl]acetamide]			3120

— patent US7115635B2, “Benzylpiperidine compound” (Mitsubishi Pharma Corporation, priority 2001, dated 2006)
